Assay results: BindingDB's records for doi:10.1021/cb500143h (Tottori University , Yonago 683-8503, Japan, 2014)

Target: T1, Alpha-galactosidase A (Homo sapiens, UniProt P06280)
T1 sequence (P06280 whole entry): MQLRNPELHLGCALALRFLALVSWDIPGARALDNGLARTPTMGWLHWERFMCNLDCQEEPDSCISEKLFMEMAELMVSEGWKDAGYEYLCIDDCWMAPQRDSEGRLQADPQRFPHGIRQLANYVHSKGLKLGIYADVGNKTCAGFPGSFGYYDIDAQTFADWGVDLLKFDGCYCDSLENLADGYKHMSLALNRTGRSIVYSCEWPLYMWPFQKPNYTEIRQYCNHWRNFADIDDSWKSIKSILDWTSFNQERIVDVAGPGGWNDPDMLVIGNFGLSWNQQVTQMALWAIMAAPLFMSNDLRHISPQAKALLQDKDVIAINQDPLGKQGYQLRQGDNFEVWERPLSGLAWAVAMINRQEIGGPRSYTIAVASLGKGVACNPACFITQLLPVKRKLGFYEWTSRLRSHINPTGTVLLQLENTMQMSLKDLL
Experiment: α-Gal A Assay

Compound	IC50 (pH 5) [nM]	IC50 (pH 7) [nM]
OC[C@@H]1[C@H](O)[C@H](O)[C@@H](O)CN1C(=S)Nc1ccc(F)cc1 [DGJ-pF PhT]	340	43
OC[C@@H]1[C@H](O)[C@H](O)[C@@H](O)CN1C(=S)Nc1cccc2ccccc12 [DGJ-NphT]	1600	370
OC[C@@H]1[C@H](O)[C@H](O)[C@@H](O)CN1C(=S)NCc1ccccc1 [DGJ-BnT]	20300	4410
O[C@@H]1[C@@H](O)CN2/C(=N\c3ccc(F)cc3)SCC2[C@@H]1O (some centres not stated) [pF PhIM-DGJ]	9670	2180

These reach a lower IC50 (pH 5). Values come first.

IC50 (pH 5) [nM]	IC50 (pH 7) [nM]	Compound
74	16	COc1ccc(NC(=S)N2C[C@H](O)[C@@H](O)[C@@H](O)[C@H]2CO)cc1 [DGJ-pMe OPhT]
8.3	1.4	CSc1ccc(NC(=S)N2C[C@H](O)[C@@H](O)[C@@H](O)[C@H]2CO)cc1 [DGJ-pMe SPhT]
